{"source": "patent US9326973B2", "about": "“Hepatitis C virus inhibitors” (priority 2012, dated 2016)"}
{"test_system": "HCV replicon, genotype-1a variant with glutamine 30 changed to glutamate in the NS5A protein", "experiment": "microbe, parasite or virus in culture", "type": "cell-based, HCV genotype 1a", "settings": "HCV replicon genotype 1a Q30E (Q→E) variant; test compound titrated with an NS5A-targeting compound (BMS-790052 fixed at 200 nM); ranking of synergist activity", "summary_of_the_method": "(§1)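 Synergy was assessed by combining several fixed amounts of an NS5A-targeting compound with a titration of the second compound of interest.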", "units": {"Fold-Synergistic 1a (Q30E)": "fold"}}
{"smiles": "CC(C)CC(=O)N[C@@H](Cc1ccccc1)c1nc(-c2ccc(-c3ccc(-c4c[nH]c([C@H](Cc5ccccc5)NC(=O)CC(C)C)n4)cc3)cc2)c[nH]1", "note": "[Compound P-6]", "Fold-Synergistic 1a (Q30E)": ">10"}
{"smiles": "CC(C)CC(=O)N[C@@H](Cc1cccc2ccccc12)c1nc(-c2ccc(-c3ccc(-c4c[nH]c([C@H](Cc5cccc6ccccc56)NC(=O)CC(C)C)n4)cc3)cc2)c[nH]1", "note": "[Compound P-7]", "Fold-Synergistic 1a (Q30E)": "<10"}
{"smiles": "CC(C)CC(=O)N[C@@H](Cc1ccc2ccccc2c1)c1nc(-c2ccc(-c3ccc(-c4c[nH]c([C@H](Cc5ccc6ccccc6c5)NC(=O)CC(C)C)n4)cc3)cc2)c[nH]1", "note": "[Compound P-8]", "Fold-Synergistic 1a (Q30E)": "<10"}
{"smiles": "COC(C)(C)[C@H](NC(=O)C(C)(C)C)c1nc(-c2ccc(-c3ccc(-c4c[nH]c([C@@H](NC(=O)C(C)(C)C)C(C)(C)OC)n4)cc3)cc2)c[nH]1", "note": "[Compound P-9]", "Fold-Synergistic 1a (Q30E)": ">100"}
{"smiles": "COC(C)(C)[C@H](NC(=O)C(C)(C)CF)c1nc(-c2ccc(-c3ccc(-c4c[nH]c([C@@H](NC(=O)C(C)(C)CF)C(C)(C)OC)n4)cc3)cc2)c[nH]1", "note": "[Compound P-10]", "Fold-Synergistic 1a (Q30E)": ">100"}
{"smiles": "COc1cccc2c(C(=O)N3C(c4ncc(-c5ccc(-c6ccc(-c7cnc(C8C[C@H]9C[C@H]9N8C(=O)c8nc(Cl)cc9c(OC)cccc89)[nH]7)cc6)cc5)[nH]4)C[C@H]4C[C@H]43)nc(Cl)cc12", "note": "(stereo partly drawn) [Compound P-49]", "Fold-Synergistic 1a (Q30E)": ">100"}
{"smiles": "CC(C)C(c1ncc(-c2ccc(-c3ccc(-c4cnc(C(C(C)C)N5CCCCC5=O)[nH]4)cc3)cc2)[nH]1)N1CCCCC1=O", "note": "(stereo not drawn) [Compound P-52]", "Fold-Synergistic 1a (Q30E)": ">10"}
{"smiles": "CC1([C@H](NC(=O)[C@H]2C[C@@H]3CC(F)(F)C[C@@H]3C2)c2nc(-c3ccc(-c4ccc(-c5c[nH]c([C@@H](NC(=O)[C@H]6C[C@@H]7CC(F)(F)C[C@@H]7C6)C6(C)CC6)n5)cc4)cc3)c[nH]2)CC1", "note": "[Compound P-140]", "Fold-Synergistic 1a (Q30E)": ">100"}
{"smiles": "CO[C@](C(=O)N[C@H](c1nc(-c2ccc(-c3ccc(-c4c[nH]c([C@@H](NC(=O)[C@@](OC)(c5ccccc5)C(F)(F)F)C(C)(C)C)n4)cc3)cc2)c[nH]1)C(C)(C)C)(c1ccccc1)C(F)(F)F", "note": "[Compound P-141]", "Fold-Synergistic 1a (Q30E)": ">100"}
{"smiles": "CC(C)(CF)C(=O)N[C@H](c1nc(-c2ccc(-c3ccc(-c4c[nH]c([C@@H](NC(=O)C(C)(C)CF)C5(C)CC5)n4)cc3)cc2)c[nH]1)C1(C)CC1", "note": "[Compound P-143]", "Fold-Synergistic 1a (Q30E)": ">100"}
{"smiles": "CC1([C@H](NC(=O)C(C)(C)C2(O)CCC(F)(F)CC2)c2nc(-c3ccc(-c4ccc(-c5c[nH]c([C@@H](NC(=O)C(C)(C)C6(O)CCC(F)(F)CC6)C6(C)CC6)n5)cc4)cc3)c[nH]2)CC1", "note": "[Compound P-144]", "Fold-Synergistic 1a (Q30E)": ">100"}
{"smiles": "CC(C)(C)[C@H](NC(=O)C1(C2(O)CCC(F)(F)CC2)CC1)c1nc(-c2ccc(-c3ccc(-c4c[nH]c([C@@H](NC(=O)C5(C6(O)CCC(F)(F)CC6)CC5)C(C)(C)C)n4)cc3)cc2)c[nH]1", "note": "[Compound P-146]", "Fold-Synergistic 1a (Q30E)": ">100"}
{"smiles": "CC1([C@H](NC(=O)C2(C3(O)CCC(F)(F)CC3)CC2)c2nc(-c3ccc(-c4ccc(-c5c[nH]c([C@@H](NC(=O)C6(C7(O)CCC(F)(F)CC7)CC6)C6(C)CC6)n5)cc4)cc3)c[nH]2)CC1", "note": "[Compound P-147]", "Fold-Synergistic 1a (Q30E)": ">100"}
{"smiles": "CC(C)(C)[C@H](NC(=O)C1(C(=O)N2CCC(F)(F)CC2)CC1)c1nc(-c2ccc(-c3ccc(-c4c[nH]c([C@@H](NC(=O)C5(C(=O)N6CCC(F)(F)CC6)CC5)C(C)(C)C)n4)cc3)cc2)c[nH]1", "note": "[Compound P-148]", "Fold-Synergistic 1a (Q30E)": ">100"}
{"smiles": "CC(C)(C)[C@H](NC(=O)[C@@]1(C)C[C@H]2CC(F)(F)C[C@H]2C1)c1nc(-c2ccc(-c3ccc(-c4c[nH]c([C@@H](NC(=O)[C@@]5(C)C[C@H]6CC(F)(F)C[C@H]6C5)C(C)(C)C)n4)cc3)cc2)c[nH]1", "note": "[Compound P-152]", "Fold-Synergistic 1a (Q30E)": ">100"}
{"smiles": "COC(C)(C(=O)N[C@H](c1nc(-c2ccc(-c3ccc(-c4c[nH]c([C@@H](NC(=O)C(C)(OC)C5(O)CCC(F)(F)CC5)C(C)(C)C)n4)cc3)cc2)c[nH]1)C(C)(C)C)C1(O)CCC(F)(F)CC1", "note": "(stereo partly drawn) [Compound P-156]", "Fold-Synergistic 1a (Q30E)": ">100"}
{"smiles": "CC(C)(C)[C@H](NC(=O)C(C)(C)[C@]1(O)C[C@H]2CC(F)(F)C[C@H]2C1)c1nc(-c2ccc(-c3ccc(-c4c[nH]c([C@@H](NC(=O)C(C)(C)[C@]5(O)C[C@H]6CC(F)(F)C[C@H]6C5)C(C)(C)C)n4)cc3)cc2)c[nH]1", "note": "[Compound P-157]", "Fold-Synergistic 1a (Q30E)": ">100"}
{"smiles": "CC(C)(C)[C@H](NC(=O)C(C)(C)C1(O)CCOCC1)c1nc(-c2ccc(-c3ccc(-c4c[nH]c([C@@H](NC(=O)C(C)(C)C5(O)CCOCC5)C(C)(C)C)n4)cc3)cc2)c[nH]1", "note": "[Compound P-158]", "Fold-Synergistic 1a (Q30E)": ">100"}
{"smiles": "CC(C)(C)[C@H](NC(=O)C(F)(F)C1(O)CCCCC1)c1nc(-c2ccc(-c3ccc(-c4c[nH]c([C@@H](NC(=O)C(F)(F)C5(O)CCCCC5)C(C)(C)C)n4)cc3)cc2)c[nH]1", "note": "[Compound P-159]", "Fold-Synergistic 1a (Q30E)": ">100"}
{"smiles": "CC(C)(C)[C@H](NC(=O)C(C)(C)C1(O)CCCCC1)c1nc(-c2ccc(-c3ccc(-c4c[nH]c([C@@H](NC(=O)C(C)(C)C5(O)CCCCC5)C(C)(C)C)n4)cc3)cc2)c[nH]1", "note": "[Compound P-160]", "Fold-Synergistic 1a (Q30E)": ">100"}
{"smiles": "CC(C)(C)[C@H](NC(=O)C1(CF)CCCO1)c1nc(-c2ccc(-c3ccc(-c4c[nH]c([C@@H](NC(=O)C5(CF)CCCO5)C(C)(C)C)n4)cc3)cc2)c[nH]1", "note": "(stereo partly drawn) [Compound P-161]", "Fold-Synergistic 1a (Q30E)": ">100"}
{"smiles": "CC(C)(C)[C@H](NC(=O)C1(C)OCCCC1(F)F)c1nc(-c2ccc(-c3ccc(-c4c[nH]c([C@@H](NC(=O)C5(C)OCCCC5(F)F)C(C)(C)C)n4)cc3)cc2)c[nH]1", "note": "(stereo partly drawn) [Compound P-162]", "Fold-Synergistic 1a (Q30E)": ">100"}
{"smiles": "CC(C)(C)[C@H](NC(=O)C(F)(F)C1(O)CCOCC1)c1nc(-c2ccc(-c3ccc(-c4c[nH]c([C@@H](NC(=O)C(F)(F)C5(O)CCOCC5)C(C)(C)C)n4)cc3)cc2)c[nH]1", "note": "[Compound P-163]", "Fold-Synergistic 1a (Q30E)": ">100"}
{"smiles": "CC(C)(C)[C@H](NC(=O)C(F)(F)C1(O)CCCC1)c1nc(-c2ccc(-c3ccc(-c4c[nH]c([C@@H](NC(=O)C(F)(F)C5(O)CCCC5)C(C)(C)C)n4)cc3)cc2)c[nH]1", "note": "[Compound P-164]", "Fold-Synergistic 1a (Q30E)": ">100"}
{"smiles": "CC(C)(C)[C@H](NC(=O)C(F)(F)C1(O)CCC1)c1nc(-c2ccc(-c3ccc(-c4c[nH]c([C@@H](NC(=O)C(F)(F)C5(O)CCC5)C(C)(C)C)n4)cc3)cc2)c[nH]1", "note": "[Compound P-165]", "Fold-Synergistic 1a (Q30E)": ">100"}
{"smiles": "CC(C)(C)[C@H](NC(=O)C(F)(F)C1CCCCO1)c1nc(-c2ccc(-c3ccc(-c4c[nH]c([C@@H](NC(=O)C(F)(F)C5CCCCO5)C(C)(C)C)n4)cc3)cc2)c[nH]1", "note": "(stereo partly drawn) [Compound P-166]", "Fold-Synergistic 1a (Q30E)": ">100"}
{"smiles": "COC1(C(F)(F)C(=O)N[C@H](c2nc(-c3ccc(-c4ccc(-c5c[nH]c([C@@H](NC(=O)C(F)(F)C6(OC)CCCCC6)C(C)(C)C)n5)cc4)cc3)c[nH]2)C(C)(C)C)CCCCC1", "note": "[Compound P-167]", "Fold-Synergistic 1a (Q30E)": ">100"}
{"test_system": "HCV replicon, genotype-1a variant with glutamine 30 changed to glutamate in the NS5A protein", "experiment": "microbe, parasite or virus in culture", "type": "cell-based, HCV genotype 1a", "settings": "Hepatitis C virus; genotype 1a Q30E replicon; BMS-790052 fixed at 200 nM; read-out: EC50 of P-55 in the presence of a fixed amount of BMS-790052", "summary_of_the_method": "as §1", "units": {"EC50": "nM"}}
{"smiles": "CC(C)CC(=O)N[C@H](c1ncc(-c2ccc(-c3ccc(-c4cnc([C@@H](NC(=O)CC(C)C)C(C)C)[nH]4)cc3)cc2)[nH]1)C(C)C", "note": "[Compound P-55]", "EC50": "~2"}
{"test_system": "HCV replicon, genotype-1a variant with glutamine 30 changed to glutamate in the NS5A protein", "experiment": "microbe, parasite or virus in culture", "type": "cell-based, HCV genotype 1a", "settings": "Hepatitis C virus; genotype 1a Q30E replicon; compound alone; read-out: EC50, titrated singly", "summary_of_the_method": "as §1", "units": {"EC50": "nM"}}
{"smiles": "CC(C)CC(=O)N[C@H](c1ncc(-c2ccc(-c3ccc(-c4cnc([C@@H](NC(=O)CC(C)C)C(C)C)[nH]4)cc3)cc2)[nH]1)C(C)C", "note": "[Compound P-55]", "EC50": "> 200"}
{"test_system": "HCV replicon, genotype-1a variant with glutamine 30 changed to glutamate in the NS5A protein", "experiment": "microbe, parasite or virus in culture", "type": "cell-based, HCV genotype 1a", "settings": "genotype 1a Q30E replicon; P-55 titrated with 200 nM BMS-790052", "summary_of_the_method": "as §1", "units": {"synergistic inhibitory effect with the combination": "fold"}}
{"smiles": "CC(C)CC(=O)N[C@H](c1ncc(-c2ccc(-c3ccc(-c4cnc([C@@H](NC(=O)CC(C)C)C(C)C)[nH]4)cc3)cc2)[nH]1)C(C)C", "note": "[Compound P-55]", "synergistic inhibitory effect with the combination": "> 100"}
